Values belong to the molecule of their own block, whether it stands above or below them.
Columns and labels:
[1] = doxorubicin release from glucomannan alginate blends (dialysis, absorbance at 485 nm); type: physicochemical; conditions: from sulfonated glucomannan calcium alginate blend; Hepes Buffered Saline with 30% FBS, 37° C., pH 7.4; n=10
[2] = dissolution of self-gelling alginate gel by alginate lyase; type: biochemical; conditions: 0.5 mL of alginate lyase added to 5 mL gel (1.5% calcium alginate, 1% sodium alginate) after 1 hour gelling
From the text: In embodiments, a self-gelling alginate can be modified to contain an optical agent to assess localization. For example, the FDA approved optical agent inodcyanine green has used at a concentration of 0.005% to assess localization after injection with infrared. Gels can be made by mixing a solution of sodium alginate (Protanal SF 120) and a calcium alginate dispersion (Protaweld TX 120). The amount of calcium alginate can be 1.5%, and the amount of sodium alginate can be 1%. The solution and dispersion are mixed and 5 mL of the gel injected into a 50 mL conical tube. The sample was left to gel for 1 hour.

doxorubicin release profile [1]: eight
Molecule: COc1cccc2c1C(=O)c1c(O)c3c(c(O)c1C2=O)C[C@@](O)(C(=O)CO)C[C@@H]3O[C@H]1C[C@H](N)[C@H](O)[C@H](C)O1 [doxorubicin]

dissolution of hardened alginate gel [2]: complete dissolution
B1: alginate lyase: enzymes that catalyze the degradation of alginate (protein, listed as Pseudomonas aeruginosa)
chain: MKTSHLIRIALPGALAAALLASQVSQAADLVPPPGYYAAVGERKGSAGSCPAVPPPYTGSLVFTSKYEGSDSARATLNVKAEKTFRSQIKDITDMERGATKLVTQYMRSGRDGDLACALNWMSAWARAGALQSDDFNHTGKSMRKWALGSLSGAYMRLKFSSSRPLAAHAEQSREIEDWFARLGTQVVRDWSGLPLKKINNHSYWAAWSVMSTAVVTNRRDLFDWAVSEFKVAANQVDEQGFLPNELKRRQRALAYHNYALPPLAMIAPFAQVNGVDLRQENHGALQRLAERVMKGVDDEETFEEKTGEDQDMTDLKVDNKYAWLEPYCALYRCEPNACSRPKKDREPFNSFRLGGEVTRVFSREGGS

From US20130211249A1, “DRUG ELUTING HYDROGELS FOR CATHETER DELIVERY” (The Johns Hopkins University, priority 2010, published 2013)
